In patent publication US11020414B2, “Antimicrobial compositions with cysteamine” (priority 2010, dated 2021):
In brackets after ≈: the same amount, converted by molar mass. Several values for one entry are separate records, joined by “and”; a condition that tells them apart may be missing. Equal values may be shown once. Where a name gives a salt, the structure may show the parent alone.

Columns and labels:
Format in all cases: cell-based
[1] = tested on: Pseudomonas aeruginosa Pa01; test: FIC index of combinations with conventional antibiotics, strain Pa01; conditions: strain Pa01 (Col^R); for FICI (Additive) Cip: in combination with Ciprofloxacin
Description: (§1) The bacterial inoculum was established by the dilution method from actively-growing cultures in Mueller-Hinton (MH) broth, standardized with 0.5 McFarland turbidity standard as described in the CLSI method M26-A.
(§2) Both the bacterial inoculum and the antimicrobial agents, including the compounds structurally related to cysteamine, were added simultaneously to the plates. The plates were incubated at 37° C. for 24 h and the optical density was read at 625 nm on a microtitre plate reader (BioTek Powerwave XS, Winooski, USA). The MIC was obtained as the lowest concentration of antimicrobial showing total inhibition of bacterial growth.
(§3) The FIC corresponds to an interaction coefficient indicating whether the combination of antimicrobial agents is synergistic, additive, antagonist or neutral. The FIC is determined by comparing the activity of an agent in combination (MIC of agent A+agent B) with the activity of the agent alone (MIC of agent A or agent B) as follow (Singh et al., 2000): FIC=MICA[combination]/MICA[alone]+MICB[combination]/MICB[alone]
(§4) Additive combinations of two antimicrobial agents are indicated by a FIC index of 1, whereas a FIC index<1 indicates synergistic combinations. Neutral combinations would give a FIC between 1 and 4, a FIC index higher than 4 indicates antagonist effects between the two antimicrobial agents.
(§5) The FIC was also calculated to assess the interaction of two antimicrobial agents in combination against bacterial samples.

[2] = tested on: Pseudomonas aeruginosa Pa14; test: FIC index of combinations with conventional antibiotics, strain Pa14; conditions: strain Pa14 (Col^R); for FICI (Additive) Col: in combination with Colistin; for FICI (Additive) Gent: in combination with Gentamicin; for FICI (Additive) Tob: in combination with Tobramycin
Description: as §1, §2, §3, §4, §5

[3] = tested on: Pseudomonas aeruginosa Pa058; test: FIC index of combinations with conventional antibiotics, strain Pa058; conditions: strain Pa058 (Col^R, Cip^R Tob^R); for FICI (Additive) Cip: in combination with Ciprofloxacin; for FICI (Additive) Gent: in combination with Gentamicin
Description: as §1, §2, §3, §4, §5

[4] = tested on: Pseudomonas aeruginosa Pa57388A; test: FIC index of combinations with conventional antibiotics, strain Pa57388A; conditions: strain Pa57388A (Col^R); for FICI (Additive) Gent: in combination with Gentamicin; for FICI (Additive) Tob: in combination with Tobramycin
Description: as §1, §2, §3, §4, §5

[5] = tested on: Pseudomonas aeruginosa Pa57388D; test: FIC index of combinations with conventional antibiotics, strain Pa57388D; conditions: strain Pa57388D (Col^R, Gent^R); for FICI (Additive) Tob / FICI (Synergy) Tob: in combination with Tobramycin
Description: as §1, §2, §3, §4, §5

[6] = tested on: Pseudomonas aeruginosa Pa01; test: MIC determination, strain Pa01; conditions: for MIC: read-out: MIC100
Description: as §1
(§6) Both the bacterial inoculum and the antimicrobial agents, including the compounds structurally related to cysteamine, were added simultaneously to the plates. The plates were incubated at 37° C. for 24 h and the optical density was read at 625 nm on a microtitre plate reader (BioTek Powerwave XS, Winooski, USA). […]
(§7) A number of compounds related in chemical structure to cysteamine were examined for antimicrobial activity; cystamine (dihydrochloride salt), taurine and 2,3-dimercaptosuccinic acid. Other compounds chemically related to cysteamine are known, but are toxic, and are therefore of no utility in a drug of this nature.

[7] = tested on: Pseudomonas aeruginosa Pa14; test: MIC determination, strain Pa14; conditions: for MIC: read-out: MIC100
Description: as §1, §6, §7

[8] = tested on: Pseudomonas aeruginosa Pa058; test: MIC determination, strain Pa058; conditions: for MIC: read-out: MIC100
Description: as §1, §6, §7

[9] = tested on: Pseudomonas aeruginosa NH57388A; test: MIC determination, strain NH57388A; conditions: for MIC: read-out: MIC100
Description: as §1, §6, §7

[10] = in combination with Colistin, hydrochloride
[11] = in combination with Gentamicin, hydrochloride
[12] = in combination with Tobramycin, hydrochloride
[13] = in combination with Ciprofloxacin, hydrochloride
[14] = in combination with Ciprofloxacin

Structure (SMILES): NCCS [Cysteamine Hydrochloride (Cyst HCl), Cysteamine hydrochloride]
- FICI (Additive) Cip ([1]; hydrochloride): 0.75 and 0.52 and 0.56
- FICI (Additive) Col [1, 10]: 0.5
- FICI (Additive) Gent [1, 11]: 0.75 and 0.5
- FICI (Additive) Tob [1, 12]: 0.51 and 0.53 and 0.5
- FICI (Synergy) Tob [1, 12]: 0.25 and 0.31 and 0.38 and 0.28 and 0.19
- FICI (Additive) Cip [2, 13]: 0.56 and 0.63 and 0.5
- FICI (Synergy) Cip [2, 13]: 0.31 and 0.37 and 0.38
- FICI (Additive) Col ([2]; hydrochloride): 0.51 and 0.5 and 0.53 and 0.52
- FICI (Additive) Gent ([2]; hydrochloride): 0.5 and 0.63 and 0.56
- FICI (Additive) Tob ([2]; hydrochloride): 0.63 and 0.75 and 0.5
- FICI (Additive) Cip ([3]; hydrochloride): 0.53 and 0.63 and 0.75 and 0.56
- FICI (Additive) Col [3, 10]: 0.52 and 0.75 and 0.56 and 0.5
- FICI (Synergy) Col [3, 10]: 0.38
- FICI (Additive) Gent ([3]; hydrochloride): 0.75
- FICI (Additive) Cip [4, 13]: 0.53 and 0.5 and 0.63 and 0.56 and 0.75
- FICI (Synergy) Cip [4, 13]: 0.19 and 0.25
- FICI (Additive) Col [4, 10]: 0.53 and 0.52 and 0.5
- FICI (Synergy) Col [4, 10]: 0.25 and 0.31 and 0.19 and 0.26
- FICI (Additive) Gent ([4]; hydrochloride): 0.63
- FICI (Additive) Tob ([4]; hydrochloride): 0.63 and 0.75
- FICI (Additive) Cip [5, 13]: 0.56 and 0.53
- FICI (Synergy) Cip [5, 13]: 0.31 and 0.38
- FICI (Additive) Col [5, 10]: 0.52 and 0.53
- FICI (Synergy) Col [5, 10]: 0.19 and 0.28 and 0.25 and 0.31
- FICI (Additive) Gent [5, 11]: 0.53 and 0.52
- FICI (Additive) Tob ([5]; hydrochloride): 0.51 and 0.5
- FICI (Synergy) Tob ([5]; hydrochloride): 0.25 and 0.31 and 0.19

Structure (SMILES): O=C(O)C(S)C(S)C(=O)O (stereo not drawn) [2,3-Dimercaptosuccinic Acid, 2,3-dimercaptosuccinic acid]
- MIC50 [6]: 1000 to 2000 µg/mL (≈ 5.49 to 11 mM)
- MIC90 [6]: > 2000 µg/mL
- MIC [6]: > 2000 µg/mL
- MIC50 [7]: 1000 to 2000 µg/mL (≈ 5.49 to 11 mM)
- MIC90 [7]: 1000 to 2000 µg/mL (≈ 5.49 to 11 mM)
- MIC [7]: > 2000 µg/mL
- MIC50 [8]: 500 to 2000 µg/mL (≈ 2.74 to 11 mM)
- MIC90 [8]: 1000 to 2000 µg/mL (≈ 5.49 to 11 mM)
- MIC [8]: 2000 µg/mL (≈ 11 mM)
- MIC50 [9]: 500 to 2000 µg/mL (≈ 2.74 to 11 mM)
- MIC90 [9]: 1000 to 2000 µg/mL (≈ 5.49 to 11 mM)
- MIC [9]: 2000 µg/mL (≈ 11 mM)

Structure (SMILES): NCCS(=O)(=O)O [Taurine, taurine]
- MIC50 [6]: > 2000 µg/mL
- MIC90 [6]: > 2000 µg/mL
- MIC [6]: > 2000 µg/mL
- MIC50 [7]: > 2000 µg/mL
- MIC90 [7]: > 2000 µg/mL
- MIC [7]: > 2000 µg/mL
- MIC50 [8]: > 2000 µg/mL
- MIC90 [8]: > 2000 µg/mL
- MIC [8]: > 2000 µg/mL
- MIC50 [9]: > 2000 µg/mL
- MIC90 [9]: > 2000 µg/mL
- MIC [9]: > 2000 µg/mL

Structure (SMILES): CC(=O)N[C@@H](CS)C(=O)O [N-Acetyl Cysteine (NAC), N-Acetyl cysteine, reference compound]
- FICI (Additive) Cip [1]: 0.56 and 0.75
- FICI (Additive) Tob ([1]; in combination with Tobramycin): 0.53 and 0.52 and 0.5 and 0.56
- FICI (Additive) Cip [2, 14]: 0.56 and 0.75
- FICI (Additive) Col [2]: 0.5 and 0.75
- FICI (Additive) Gent [2]: 0.51 and 0.52
- FICI (Additive) Tob [2]: 0.63 and 0.5 and 0.75
- FICI (Additive) Cip [3]: 0.56 and 0.75
- FICI (Additive) Col ([3]; in combination with Colistin): 0.53
- FICI (Additive) Gent [3]: 0.53
- FICI (Additive) Tob ([3]; in combination with Tobramycin): 0.75 and 0.53 and 0.51
- FICI (Additive) Cip [4, 14]: 0.63 and 0.5 and 0.56
- FICI (Additive) Col ([4]; in combination with Colistin): 0.56 and 0.75 and 0.52
- FICI (Additive) Gent [4]: 0.63
- FICI (Additive) Tob [4]: 0.53
- FICI (Additive) Cip [5, 14]: 0.53 and 0.75
- FICI (Additive) Col ([5]; in combination with Colistin): 0.56 and 0.75 and 0.53 and 0.5 and 0.51
- FICI (Additive) Tob [5]: 0.56 and 0.63
- FICI (Synergy) Tob [5]: 0.25 and 0.31
